Here are results for two compounds from patent US5270334A, “4-methoxy-5-methyl-pyran-3-ol natural products and derivatives thereof” (E. R. Squibb & Sons, Inc., priority 1992, dated 1993).

In one experiment the target is T1, lanosterol demethylase (Candida albicans, UniProt P10613).
T1 construct: endogenous in cells; host or cells: Candida albicans SGY677
In words: inhibition of lanosterol demethylase, spectrophotometric carbon monoxide binding assay. The settings on record: Candida albicans SGY677; read-out: concentration which gives 50% inhibition of carbon monoxide binding. As for the experimental part: (§1) The inhibition of lanosterol demethylase was determined by two methods: the spectrophotometric carbon monoxide binding assay of Omura and Sato (J. Biol. Chem. 239:2370-2378, 1964) and by a radiolabeled metabolic assay.
Cells of Candida albicans, SGY677, were grown overnight without shaking at 30° C. in a medium consisting of yeast extract 1%, peptone 2%, glucose 2% and distilled water. Cells were harvested by centrifugation and resuspended in 0.65M mannitol to an optical density at 600 nm of 2.5. At this density 1 ml of cells was equal to 6.7 mg constant dry weight (105° C. for 18 hours).
Scopularin and its alcohol derivative of Example 4 were added to the enzyme and the inhibition of carbon monoxide binding determined over a range of inhibitor concentrations.

Experiment [1] deals with T2, lanosterol demethylase of Candida albicans (Candida albicans, UniProt P10613).
T2 construct: 14C-acetate sterol labelling, TLC
In words: inhibition of lanosterol demethylase, radiolabeled metabolic assay (14C-acetate, lanosterol accumulation). It counts as cell-based. The settings on record: Candida albicans SC5314, 14C-acetate, 30°. As for the experimental part: as §1
The ability of scopularin and its alcohol to inhibit the lanosterol demethylase of Candida albicans can also be visualized by a metabolic assay. Candida albicans, SC5314, was grown overnight at 30° with shaking in the same medium as that used above. Cells were harvested by centrifugation and resuspended in water to give an optical density of 0.3 at 660 nm. 750 μl of this cell suspension, 300 μl of a medium containing 0.35 g Difco yeast nitrogen base without amino acids, 1 g glucose and distilled water to 10 ml, 100 μl of test material and distilled water were combined to give a final volume of 1.425 ml. This was incubated for 15 minutes at 30° C. with shaking, then 3 μCi ^14 C-acetate was added and continued to incubate for 1 hour. Cells were harvested by centrifugation and extracted with 2×0.5 ml methanol; centrifuged, decanted supernate and repeated the extraction with […] methanol-benzene (1:1). Centrifuged, decanted; combined supernates, dried and resuspended in 100 μl chloroform-methanol (1:1). The aliquots were spotted onto silica gel 60 (Merck) plates and developed chromatographically in a solvent containing dichloromethane-acetone (60:1). […]

For experiment [2], the system named is cytochrome P450 enzymes, such as lanosterol demethylase. In words: inhibition of cytochrome P450 enzymes (general statement). The experiment is classed as biochemical. Particulars: in words.
A further experiment relates to yeasts and fungi. In words: activity against a variety of yeasts and fungi (general statement). Particulars: in words. The experiment is classed as cell-based.

Each structure is given as a SMILES string.

T1 sequence (P10613 whole entry): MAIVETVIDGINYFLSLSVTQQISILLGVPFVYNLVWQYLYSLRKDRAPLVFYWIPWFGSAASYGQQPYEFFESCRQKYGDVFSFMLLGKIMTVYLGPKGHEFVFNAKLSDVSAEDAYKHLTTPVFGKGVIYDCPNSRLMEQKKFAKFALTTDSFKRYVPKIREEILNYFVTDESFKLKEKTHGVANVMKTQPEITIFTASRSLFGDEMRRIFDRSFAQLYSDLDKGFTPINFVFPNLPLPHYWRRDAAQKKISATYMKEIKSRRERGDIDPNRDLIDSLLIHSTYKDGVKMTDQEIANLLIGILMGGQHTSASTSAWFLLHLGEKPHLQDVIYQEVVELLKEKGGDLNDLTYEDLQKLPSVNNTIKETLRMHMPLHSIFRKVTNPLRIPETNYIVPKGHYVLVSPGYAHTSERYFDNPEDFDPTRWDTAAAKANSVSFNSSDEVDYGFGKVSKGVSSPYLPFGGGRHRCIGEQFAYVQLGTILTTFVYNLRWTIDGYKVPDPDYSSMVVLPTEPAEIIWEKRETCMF
T2 sequence (P10613 whole entry): as above

With `CCC/C=C/C=C/C=C(\C)[C@H]1OC[C@@H](C)[C@@H](OC)[C@@H]1O` (relative stereo) [Example 4], the IC50 on lanosterol demethylase came to 14 µM. Moreover, in experiment [1], the “concentration causing accumulation of lanosterol, consistent with inhibition of lanosterol demethylase” value was 1.4×10^-6. The “inhibition of cytochrome P450 enzymes, such as lanosterol demethylase” value in experiment [2] is listed as “inhibitor”.
In the case of `C/C=C/C=C/C=C(\C)[C@@H]1OC[C@H](C)[C@H](OC)[C@H]1OC(=O)CN[C@@H]1O[C@H](CO)[C@@H](O)[C@H](O)[C@H]1O` [Ic], in the experiment on yeasts and fungi, the “activity against a variety of yeasts and fungi” value was “has activity”. Besides, the “inhibition of cytochrome P450 enzymes, such as lanosterol demethylase” value in experiment [2] is given as “inhibit”.
